Results from patent US20250163076A1, “SYNTHESIS OF BRUTON'S TYROSINE KINASE INHIBITORS” (JANSSEN PHARMACEUTICA NV, priority 2022, published 2025).
In brackets after ≈: the same amount, converted by molar mass. Like-named read-outs stand apart in the source and are kept apart here. Marks after values point to notes of the source that are not given here.

Key:
[1] = Solubility of P and M forms in solvent systems and their water mixtures; type: physicochemical
Excerpt: Moreover, this solubility difference can be tuned by changing the ratio between 1-propanol/water. Therefore, M form can be efficiently converted even starting from a 1:1 d.r. mixture.

BTK = BTK (Homo sapiens, UniProt Q06187); test: BTK covalent inhibition kinetics (KI, kinact, kinact/KI); type: biochemical; conditions: for Ki / kinact: average of 2 independent determinations (± SD)
Sequence of BTK (Q06187 whole entry): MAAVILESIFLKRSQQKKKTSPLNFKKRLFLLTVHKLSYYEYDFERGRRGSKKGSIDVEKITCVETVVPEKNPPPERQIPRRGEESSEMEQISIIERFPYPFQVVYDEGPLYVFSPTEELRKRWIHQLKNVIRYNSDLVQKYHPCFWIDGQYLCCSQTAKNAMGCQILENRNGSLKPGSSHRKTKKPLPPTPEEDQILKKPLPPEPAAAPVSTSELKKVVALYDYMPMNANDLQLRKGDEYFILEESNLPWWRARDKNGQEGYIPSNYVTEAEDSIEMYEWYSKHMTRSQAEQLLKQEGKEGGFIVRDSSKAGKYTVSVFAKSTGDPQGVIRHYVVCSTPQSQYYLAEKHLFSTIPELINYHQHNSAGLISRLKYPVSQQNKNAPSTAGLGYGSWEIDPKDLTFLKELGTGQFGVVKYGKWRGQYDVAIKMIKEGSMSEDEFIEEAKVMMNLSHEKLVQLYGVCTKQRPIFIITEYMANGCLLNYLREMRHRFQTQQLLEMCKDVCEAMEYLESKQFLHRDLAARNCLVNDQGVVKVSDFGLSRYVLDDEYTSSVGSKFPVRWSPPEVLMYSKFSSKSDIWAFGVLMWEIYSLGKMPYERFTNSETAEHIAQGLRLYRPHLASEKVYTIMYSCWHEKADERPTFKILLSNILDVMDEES
Experimental: The development of the structure-activity relationship was conducted by characterizing the non-covalent affinity of each inhibitor for BTK (KI) and the first order rate constant for irreversible covalent bond formation (kinact). The second order rate constant kinact/KI ratio is used to assess the covalent inhibitor potency because it is independent of incubation time and substrate concentrations (Copeland, R. A. Evaluation of Enzyme Inhibitors in Drug Discovery: a Guide for Medicinal Chemists and Pharmacologists; 2nd ed.; Wiley: Hoboken, N.J., 2013).

[2] = Aqueous solubility at pH 2 and pH 7; type: physicochemical
[3] = Human liver microsomes T1/2; type: in vitro ADME; conditions: human, liver microsomes
[4] = aqueous medium, aqueous buffer, Table 4, pH 7, read-out: Solubility pH 7
[5] = aqueous medium, simulated gastric fluid, Table 4, pH 2, read-out: Solubility pH 2

C=CC(=O)N[C@H]1CCC[C@H]1NC(=O)c1sc2nccc3c2c1NC(=O)N3c1cnc(CC(C)C)cc1C (single isomer, unassigned) [P form]
Solubility ([1]; 1-Butanol/water (~6/94 w/w %), 10° C.): 0.01 mg/mL (≈ 0.0193 mM) | Solubility ([1]; 1-Butanol/water (~6/94 w/w %), 25° C.): 0.01 mg/mL (≈ 0.0193 mM) | Solubility ([1]; 1-Butanol/water (~6/94 w/w %), 50° C.): immiscible | Solubility ([1]; 1-Butanol/water (~80/20 w/w %), 10° C.): 18.2 mg/mL (≈ 35.1 mM) | Solubility ([1]; 1-Butanol/water (~80/20 w/w %), 25° C.): 20.7 mg/mL (≈ 39.9 mM) | Solubility ([1]; 1-Butanol/water (~80/20 w/w %), 50° C.): immiscible | Solubility ([1]; 1-Butanol, 10° C.): 137.3 mg/mL (≈ 265 mM) | Solubility ([1]; 1-Butanol, 25° C.): 132.8 mg/mL (≈ 256 mM) | Solubility ([1]; 1-Butanol, 50° C.): 197.6 mg/mL (≈ 381 mM) | Solubility ([1]; 1-Propanol/water (20/80 w/w %), 25° C.): 0.4 mg/mL (≈ 0.771 mM) | Solubility ([1]; 1-Propanol/water (20/80 w/w %), 50° C.): 0.5 mg/mL (≈ 0.964 mM) | Solubility ([1]; 1-Propanol/water (33/67 w/w %), 10 °C, aqueous with cosolvent or surfactant or cyclodextrin, thermodynamic from solid, 1-Propanol/water (33/67 w/w %), 10° C., read-out: Solubility): 2.2 mg/mL (≈ 4.24 mM) | Solubility ([1]; 1-Propanol/water (33/67 w/w %), 25° C.): 1.9 mg/mL (≈ 3.66 mM) | Solubility ([1]; 1-Propanol/water (33/67 w/w %), 50° C.): 1.8 mg/mL (≈ 3.47 mM) | Solubility ([1]; 1-Propanol/water (50/50 w/w %), 25° C.): 8.5 mg/mL (≈ 16.4 mM) | Solubility ([1]; 1-Propanol/water (50/50 w/w %), 50° C.): 15.6* mg/mL | Solubility ([1]; 1-Propanol/water (67/33 w/w %), 10° C.): 18.0 mg/mL (≈ 34.7 mM) | Solubility ([1]; 1-Propanol/water (67/33 w/w %), 25° C.): 20.8 mg/mL (≈ 40.1 mM) | Solubility ([1]; 1-Propanol/water (67/33 w/w %), 50° C.): 20.3* mg/mL | Solubility ([1]; 1-Propanol/water (80/20 w/w %), 10° C.): 24.8 mg/mL (≈ 47.8 mM) | Solubility ([1]; 1-Propanol/water (80/20 w/w %), 25° C.): 26.3 mg/mL (≈ 50.7 mM) | Solubility ([1]; 1-Propanol/water (80/20 w/w %), 50° C.): 32.3* mg/mL | Solubility ([1]; 1-Propanol, 10° C.): 206.8 mg/mL (≈ 399 mM) | Solubility ([1]; 1-propanol, 25 °C, organic solvent or mixture, 1-Propanol, 25° C., read-out: Solubility): 197 mg/mL (≈ 380 mM) | Solubility ([1]; 1-propanol, 50 °C, organic solvent or mixture, 1-Propanol, 50° C., read-out: Solubility): 255 mg/mL (≈ 492 mM) | Solubility ([1]; 1-propanol/water (50/50 w/w %), 10 °C, aqueous with cosolvent or surfactant or cyclodextrin, thermodynamic from solid, 1-Propanol/water (50/50 w/w %), 10° C., read-out: Solubility): 8.1 mg/mL (≈ 15.6 mM) | Solubility ([1]; 2-butanol/water (~17/83 w/w %), 50 °C, aqueous with cosolvent or surfactant or cyclodextrin, 2-butanol/water (~17/83 w/w %), 50° C., read-out: Solubility): 0.2 mg/mL (≈ 0.386 mM) | Solubility ([1]; 2-butanol/water (~17/83 w/w %), 10° C.): 0.5 mg/mL (≈ 0.964 mM) | Solubility ([1]; 2-butanol/water (~17/83 w/w %), 25° C.): 0.3 mg/mL (≈ 0.578 mM) | Solubility ([1]; Isobutanol, 10° C.): 105.8 mg/mL (≈ 204 mM) | Solubility ([1]; Isobutanol, 25° C.): 102.2 mg/mL (≈ 197 mM) | Solubility ([1]; Isobutanol, 50° C.): 134.3 mg/mL (≈ 259 mM) | Solubility ([1]; Isopropanol/water (~16/84 w/w %), 10° C.): 0.1 mg/mL (≈ 0.193 mM) | Solubility ([1]; Isopropanol/water (~16/84 w/w %), 25° C.): 0.2 mg/mL (≈ 0.386 mM) | Solubility ([1]; Isopropanol/water (~16/84 w/w %), 50° C.): 0.3 mg/mL (≈ 0.578 mM) | Solubility ([1]; Isopropanol/water (~28/72 w/w %), 10° C.): 0.4 mg/mL (≈ 0.771 mM) | Solubility ([1]; Isopropanol/water (~28/72 w/w %), 25° C.): 0.7 mg/mL (≈ 1.35 mM) | Solubility ([1]; Isopropanol/water (~28/72 w/w %), 50° C.): 1.1 mg/mL (≈ 2.12 mM) | Solubility ([1]; Isopropanol/water (~44/56 w/w %), 10° C.): 2.0 mg/mL (≈ 3.86 mM) | Solubility ([1]; Isopropanol/water (~44/56 w/w %), 25° C.): 3.0 mg/mL (≈ 5.78 mM) | Solubility ([1]; Isopropanol/water (~44/56 w/w %), 50° C.): 2.0 mg/mL (≈ 3.86 mM) | Solubility ([1]; Isopropanol/water (~61/39 w/w %), 10° C.): 4.0 mg/mL (≈ 7.71 mM) | Solubility ([1]; Isopropanol/water (~61/39 w/w %), 25° C.): 6.0 mg/mL (≈ 11.6 mM) | Solubility ([1]; Isopropanol/water (~61/39 w/w %), 50° C.): 4.0 mg/mL (≈ 7.71 mM) | Solubility ([1]; Propylene carbonate/water (93/7 w/w %), 10° C.): 10.9 mg/mL (≈ 21 mM) | Solubility ([1]; Propylene carbonate/water (93/7 w/w %), 25° C.): 9.0 mg/mL (≈ 17.4 mM) | Solubility ([1]; Propylene carbonate/water (93/7 w/w %), 50° C.): 8.6 mg/mL (≈ 16.6 mM) | Solubility ([1]; Propylene carbonate, 10° C.): 55.8 mg/mL (≈ 108 mM) | Solubility ([1]; isobutanol/water (~8/92 w/w %), 10 °C, aqueous with cosolvent or surfactant or cyclodextrin, Isobutanol/water (~8/92 w/w %), 10° C., read-out: Solubility): 0.1 mg/mL (≈ 0.193 mM) | Solubility ([1]; isobutanol/water (~8/92 w/w %), 25 °C, aqueous with cosolvent or surfactant or cyclodextrin, Isobutanol/water (~8/92 w/w %), 25° C., read-out: Solubility): 0.1 mg/mL (≈ 0.193 mM) | Solubility ([1]; isobutanol/water (~8/92 w/w %), 50 °C, aqueous with cosolvent or surfactant or cyclodextrin, Isobutanol/water (~8/92 w/w %), 50° C., read-out: Solubility): 0.1 mg/mL (≈ 0.193 mM) | Solubility ([1]; propylene carbonate, 25 °C, organic solvent or mixture, Propylene carbonate, 25° C., read-out: Solubility): 50.1 mg/mL (≈ 96.6 mM) | Solubility ([1]; propylene carbonate, 50 °C, organic solvent or mixture, Propylene carbonate, 50° C., read-out: Solubility): 97.3 mg/mL (≈ 188 mM)

C=CC(=O)N1CCCC(NC(=O)c2sc3nccc4c3c2NC(=O)N4c2ccc(Oc3ccccc3)cn2)C1 (stereo not shown) [C]
Ki (BTK; Table 4): 456 ± 7 nM | kinact (BTK; Table 4): 0.000303 s⁻¹ | kinact/KI (BTK; Table 4, read-out: kinact/KI): 664 ± 44 M⁻¹ s⁻¹ | Solubility [2, 4]: 9 µM (≈ 4.87 µg/mL) | Solubility [2, 5]: 10 µM (≈ 5.41 µg/mL) | half-life ([3]; Table 4): < 4 min

C=CC(=O)N1CCCC(NC(=O)c2sc3nccc4c3c2NC(=O)N4c2ccc(Oc3ccccc3)cc2)C1 (stereo not shown) [Compound B]
Ki (BTK; Table 4): 32 ± 20 nM | kinact (BTK; Table 4): 0.00039 ± 0.00011 s⁻¹ | kinact/KI (BTK; Table 4, read-out: kinact/KI): 13800 ± 5200 M⁻¹ s⁻¹ | kinact/KI (BTK; text b354): 13800 M⁻¹ s⁻¹ | Solubility [2, 4]: < 4 µM | Solubility [2, 5]: < 4 µM | half-life ([3]; Table 4): < 4 min

C=CC(=O)N1CCCC(NC(=O)c2sc3nccc4c3c2NC(=O)N4c2cnc(Oc3ccccc3)cc2C)C1 (stereo not shown) [Compound F]
Ki (BTK; Table 4): 27.6 nM | kinact (BTK; Table 4): 0.000352 s⁻¹ | kinact/KI (BTK; Table 4, read-out: kinact/KI): 13000 ± 1700 M⁻¹ s⁻¹ | Solubility [2, 4]: 7 µM (≈ 3.88 µg/mL) | Solubility [2, 5]: 15 µM (≈ 8.32 µg/mL) | half-life ([3]; Table 4): 5 min

C=CC(=O)N1CCCC(NC(=O)c2sc3nccc4c3c2NC(=O)N4c2cnc(OC3CCCC3)cc2C)C1 (stereo not shown) [Compound G]
Ki (BTK; Table 4): 22.2 ± 3.3 nM | kinact (BTK; Table 4): 0.000307 s⁻¹ | kinact/KI (BTK; Table 4, read-out: kinact/KI): 13800 ± 430 M⁻¹ s⁻¹ | Solubility [2, 4]: < 4 µM | Solubility [2, 5]: 15 µM (≈ 8.2 µg/mL) | half-life ([3]; Table 4): < 4 min

C=CC(=O)N1CCCC(NC(=O)c2sc3nccc4c3c2NC(=O)N4c2cnc(OC(C)C)cc2C)C1 (stereo not shown) [Compound I]
kinact/KI (BTK; Table 4): 1660 ± 62 M⁻¹ s⁻¹ | Ki (BTK; Table 4): 208 ± 15 nM | kinact (BTK; Table 4): 0.000345 s⁻¹ | kinact/KI (BTK; Table 4, read-out: kinact/KI): 1660 M⁻¹ s⁻¹ | Solubility [2, 4]: 68 µM (≈ 35.4 µg/mL) | Solubility [2, 5]: 119 µM (≈ 62 µg/mL) | half-life ([3]; Table 4): 19 min

C=CC(=O)N1CCCC(NC(=O)c2sc3nccc4c3c2NC(=O)N4c2ccc(Oc3ccccc3)nc2)C1 (stereo not shown) [D]
Ki (BTK; Table 4): 354 ± 29 nM | kinact (BTK; Table 4): 0.000278 s⁻¹ | kinact/KI (BTK; Table 4, read-out: kinact/KI): 786 ± 63 M⁻¹ s⁻¹ | Solubility [2, 4]: 4 µM (≈ 2.16 µg/mL) | Solubility [2, 5]: 18 µM (≈ 9.73 µg/mL) | half-life ([3]; Table 4): 6 min

C=CC(=O)N1CCCC(NC(=O)c2sc3nccc4c3c2NC(=O)N4c2ncc(Oc3ccccc3)cc2C)C1 (stereo not shown) [E]
Ki (BTK; Table 4): 69.9 ± 0.2 nM | kinact (BTK; Table 4): 0.000333 s⁻¹ | kinact/KI (BTK; Table 4, read-out: kinact/KI): 4770 ± 7450 M⁻¹ s⁻¹ | Solubility [2, 4]: 9 µM (≈ 4.99 µg/mL) | Solubility [2, 5]: 16 µM (≈ 8.87 µg/mL) | half-life ([3]; Table 4): 4 min

C=CC(=O)N1CCCC(NC(=O)c2sc3nccc4c3c2NC(=O)N4c2cnc(OC3CCC3)cc2C)C1 (stereo not shown) [H]
Ki (BTK; Table 4): 64 ± 14 nM | kinact (BTK; Table 4): 0.000316 s⁻¹ | kinact/KI (BTK; Table 4, read-out: kinact/KI): 5000 ± 560 M⁻¹ s⁻¹ | Solubility [2, 4]: 4 µM (≈ 2.13 µg/mL) | Solubility [2, 5]: 10 µM (≈ 5.33 µg/mL) | half-life ([3]; Table 4): < 4 min

C=CC(=O)N1CCCC(NC(=O)c2sc3nccc4c3c2NC(=O)N4c2cnc(CC(C)C)cc2C)C1 (stereo not shown) [J]
Ki (BTK; Table 4): 145 ± 20 nM | kinact (BTK; Table 4): 0.000319 s⁻¹ | kinact/KI (BTK; Table 4, read-out: kinact/KI): 2220 ± 272 M⁻¹ s⁻¹ | Solubility ([2]; aqueous medium at pH 2, simulated gastric fluid, Table 4, pH 2, read-out: Solubility pH 2): 350 µM (≈ 182 µg/mL) | Solubility ([2]; aqueous medium at pH 7, aqueous buffer, Table 4, pH 7, read-out: Solubility pH 7): 23 µM (≈ 11.9 µg/mL) | half-life ([3]; Table 4): 6 min

C=CC(=O)N1CCC(NC(=O)c2sc3nccc4c3c2NC(=O)N4c2cnc(CC(C)C)cc2C)C1 (stereo not shown) [K]
Ki (BTK; Table 5): 2550 nM | kinact (BTK; Table 5): 0.000255 s⁻¹ | kinact/KI (BTK; Table 5, read-out: kinact/KI): 98.5 ± 12 M⁻¹ s⁻¹ | Solubility ([2]; aqueous medium, aqueous buffer, Table 5, pH 7, read-out: Solubility pH 7): 172 µM (≈ 86.8 µg/mL) | Solubility ([2]; aqueous medium, simulated gastric fluid, Table 5, pH 2, read-out: Solubility pH 2): > 400 µM | half-life ([3]; Table 5): 53 min
